In US20190142840A1, “USE OF SIGMA RECEPTOR LIGANDS IN CANCER” (priority 2016, published 2019):
Where two headings read alike, the source gives them in different places.

Legend:
[1] = test system: human breast adenocarcinoma MCF7 European cell line; experiment: Proliferation assay (MTT or SRB), MCF7 European cell line; assay type: cell-based; conditions: for cytotoxic effect of association with paclitaxel: 10 μM sigma-1 receptor antagonist + 10 nM paclitaxel; for IC50: Homo sapiens, read-out: IC50 (concentration of drug that inhibited 50% of cell proliferation)
Procedure: (§1) The human breast adenocarcinoma MCF7 European cell line, the human lung carcinoma A549 cell line and the B16-F10 murine melanoma cell line were obtained from the University of Granada Scientific Instrumentation Centre (Spain) and the American Type Culture Collection (ATCC). The cells were cultured in Dulbecco's modified Eagle's medium (DMEM) (Sigma, St. Louis, Mo., USA), supplemented with 10% heat-inactivated fetal bovine serum (FBS) (Lonza, Walkersville, Md., USA) and 1% of antibiotics mixture of penicillin (10,000 U/mL) and streptomycin (10 mg/mL) in an humidified 5% CO2 incubator at 37° C. of temperature. […] The percentage of viability was calculated by utilizing cells without any treatment as control. […] In the MTT protocol, 20 μL of MTT solution in cell culture medium (5 mg/mL) was added to each well. […] The optical density (OD) of converted dye, which is proportional to the number of viable cells, was measured at 570 nm using a Titertek multiscan colorimeter (Flow Laboratories, Irvine, USA). The percentage of surviving cells was calculated as the OD ratio of treated cells to control (untreated) cells (×100). In the SRB protocol, the cells were washed three times with PBS, and 300 μL of 10% trichloroacetic acid was used to fix the cells (20 minutes at 4° C.). Then, the cells were washed three times with distilled water and left to dry before 300 μL of SRB was added. Incubation under mechanical stirring was continued for 20 minutes, and the excess SRB was removed by the addition of a 1% acetic acid solution. Then, the cells were left to dry. […] Sigma-Aldrich) was used for dye resuspension. The optical density (OD) of SRB was measured at 492 nm (Titertek® Multiskan colorimeter; Flow Laboratories Ltd, Oldham, UK) and analyzed with Ascent software version 2.6 (ThermoLab systems, Helsinki, Finland). In all cases, the percentage of surviving cells was calculated as: [OD treated cells/OD control (untreated) cells)]×100. The IC50 values (concentration of drug that inhibited 50% of cell proliferation) were estimated from the inhibition curves.

[2] = test system: patients treated for colorectal cancer; experiment: Phase 2 placebo-controlled clinical trial of Example 1 with oxaliplatin (FOLFOX4/mFOLFOX6); assay type: in vivo, human
Procedure: Thus, the clinical study titled “A proof-concept phase 2, randomized, placebo-controlled, double blind, multicenter clinical trial in two parallel groups to evaluate the efficacy of Example 1 for reducing the incidence and severity of oxaliplatin-induced peripheral neuropathy in patients treated for colorectal cancer” was performed.
The study period was 24 weeks of chemotherapy (one chemo cycle every 2 weeks=12 chemo cycles) plus 6 weeks (follow-up) and having as relevant safety objective to explore the incidence of adverse events by severity, of serious adverse effects, of adverse events leading to Example 1 discontinuation and of adverse events related to Example 1.
Patients received either: • oral daily Example 1, 400 mg/day, during the first 5 days of every chemotherapy cycle, starting the day before the cycle, up to a maximum of 12 cycles (Arm 1), • or oral daily placebo during the first 5 days of every chemotherapy cycle, starting the day before the cycle, up to a maximum of 12 cycles (Arm 2).
Patients were randomized to one of the two above mentioned Arms.
It was expected that chemotherapy cycles were repeated every 14 days for a maximum of 6 months (12 cycles) in the absence of disease progression or unacceptable toxicity.

[3] = test system: human lung carcinoma A549 cell line; experiment: Proliferation assay (MTT or SRB), A549 cell line; assay type: cell-based; conditions: read-out: IC50 (concentration of drug that inhibited 50% of cell proliferation)
Procedure: The cells were cultured in Dulbecco's modified Eagle's medium (DMEM) (Sigma, St. Louis, Mo., USA), supplemented with 10% heat-inactivated fetal bovine serum (FBS) (Lonza, Walkersville, Md., USA) and 1% of antibiotics mixture of penicillin (10,000 U/mL) and streptomycin (10 mg/mL) in an humidified 5% CO2 incubator at 37° C. of temperature. Cultured cells were detached with a trypsin-ethylenediamine tetraacetic acid (EDTA) solution (0.25%) and seeded into 24-well plates at a density of 6-15×10^3 cells per well, depending on the cell line.
After incubation for 24 hours under culture conditions, the cells were treated with either paclitaxel (0.1-50 nM) or Example 1 (5-100 μM). […] The percentage of viability was calculated by utilizing cells without any treatment as control.
After an incubation time of 96 hours with drugs, the cytotoxicity of the treatments toward the cell lines was evaluated in triplícate by the 3-(4,5-dimethylthiazol-2-yl)-2,5-diphenyl tetrazolium bromide (MTT) proliferation assay, as previously described (Clares et al., 2013), or with a sulforhodamine B (SRB) protocol, as previously described (Melguizo et al., 2015). […] The optical density (OD) of converted dye, which is proportional to the number of viable cells, was measured at 570 nm using a Titertek multiscan colorimeter (Flow Laboratories, Irvine, USA). […]

[4] = test system: B16-F10 murine melanoma cell line; experiment: Proliferation assay (MTT or SRB), B16-F10 cell line; assay type: cell-based; conditions: for cytotoxic effect of association with paclitaxel: 10 μM sigma-1 receptor antagonist + 10 nM paclitaxel; for IC50: Mus musculus, read-out: IC50 (concentration of drug that inhibited 50% of cell proliferation)
Procedure: as §1

sigma 1 (σ-1) site = sigma 1 (σ-1) site (Homo sapiens, UniProt Q99720); conditions: background statement; cited from earlier work
Sequence of sigma 1 (σ-1) site (Q99720 whole entry): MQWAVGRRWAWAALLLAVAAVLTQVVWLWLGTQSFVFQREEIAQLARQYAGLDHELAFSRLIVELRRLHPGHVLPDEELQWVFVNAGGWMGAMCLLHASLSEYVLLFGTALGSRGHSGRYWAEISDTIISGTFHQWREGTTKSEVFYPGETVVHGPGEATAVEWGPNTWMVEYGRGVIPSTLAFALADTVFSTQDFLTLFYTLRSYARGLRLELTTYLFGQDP

sigma (σ-2) site = sigma (σ-2) site (Homo sapiens, UniProt Q5BJF2); conditions: background statement; cited from earlier work
Sequence of sigma (σ-2) site (Q5BJF2 whole entry): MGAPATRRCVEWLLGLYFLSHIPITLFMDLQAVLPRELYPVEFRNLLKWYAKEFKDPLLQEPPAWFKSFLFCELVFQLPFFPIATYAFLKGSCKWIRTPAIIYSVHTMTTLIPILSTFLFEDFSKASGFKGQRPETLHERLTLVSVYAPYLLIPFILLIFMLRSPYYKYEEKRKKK

[5] = Example 1 400 mg/day oral with oxaliplatin, % apparently of the 27 discontinuations
[6] = Example 1 400 mg/day oral with oxaliplatin, % of n = 62 randomized
[7] = Example 1 400 mg/day oral with oxaliplatin, number of subjects
[8] = patients treated with Example 1 versus placebo

## Cc1cc(OCCN2CCOCC2)nn1-c1ccc2ccccc2c1 [Example 1, 4-{2-[5-Methyl-1-(naphthalen-2-yl)-1H-pyrazol-3-yloxy]ethyl}morpholine]
[1]; MCF7 European cell culture
  cytotoxic effect of association with paclitaxel: better results than Haloperidol and BD-1063
[1]; MCF7 European cell culture, listed as Example-1
  cytotoxic effect of association with paclitaxel: greater than summative
[1]; MCF7, 96 h
  IC50: 83 µM
[2]; [5]
  Discontinuations: Physician decision (%): 11.1%
  Discontinuations: Progressive Disease (%): 7.4%
[2]; [6]
  Number of Completers (%): 56.5%
  Number of discontinuations (%): 43.5%
[2]; Example 1 400 mg/day oral with oxaliplatin, n = 62, number of subjects
  Number of discontinuations: 27
[2]; [7]
  Discontinuations: Physician decision: 3
  Discontinuations: Progressive Disease: 2
[2]; Example 1 400 mg/day oral, first 5 days of each cycle, with oxaliplatin, n = 62 randomized, number of subjects
  Number of Completers: 35
[2]; Example 1 added to chemotherapy versus placebo
  more patients completed the 12 cycles of Oxaliplatin therapy: 14.6%
[2]; [8]
  Oxaliplatin dosing attained: higher Oxaliplatin dosing
  patients discontinued because of cancer progression or physician decision: Less patients
  tolerability of the chemotherapy: tolerated better the chemotherapy
[3]; A549, 96 h
  IC50: 100 µM
[4]; B16-F10 cell culture
  cytotoxic effect of association with paclitaxel: better results than Haloperidol and BD-1063
[4]; B16-F10 cell culture, listed as Example-1
  cytotoxic effect of association with paclitaxel: greater than summative
[4]; B16-F10, 96 h
  IC50: 27 µM

## CC(=O)O[C@H]1C(=O)[C@@]2(C)[C@H]([C@H](OC(=O)c3ccccc3)[C@]3(O)C[C@H](OC(=O)[C@H](O)[C@@H](NC(=O)c4ccccc4)c4ccccc4)C(C)=C1C3(C)C)[C@]1(OC(C)=O)CO[C@@H]1C[C@@H]2O [Paclitaxel, reference compound]
[1]; MCF7 European cells, 96 hours incubation
  IC50: 0.0085 µM
[1]; paclitaxel alone at 10 nM, MCF7 European cell culture
  cytotoxicity: around 35%
[3]; A549, A-549 cells, 96 hours incubation
  IC50: 0.003 µM
[4]; B16-F10 cells, 96 hours incubation
  IC50: 0.015 µM
[4]; paclitaxel alone at 10 nM, B16-F10 cell culture
  cytotoxicity: around 35%

## O=C(CCCN1CCC(O)(c2ccc(Cl)cc2)CC1)c1ccc(F)cc1 [haloperidol, reference compound]
[1]; MCF7 European cell culture
  cytotoxic effect of association with paclitaxel: greater than summative
[4]; B16-F10 cell culture
  cytotoxic effect of association with paclitaxel: greater than summative

## SKF 10047
Sigma 1 (σ-1) site
  affinity for the sigma 1 (σ-1) site: nanomolar affinity
Sigma (σ-2) site
  affinity for the sigma (σ-2) site: micromolar affinity
